Measured values reported in patent publication US7294646B2, “Maxi-k channel blockers, methods of use and process for making the same” (Merck & Co. Inc., priority 2002, dated 2007).

Legend:
[1] = test system: Normotensive Dutch Belted rabbits; experiment: Intraocular pressure (IOP) measurements in rabbits; assay type: in vivo, rabbit; details: for reduction of IOP: 25 μl, normal Dutch Belted rabbits; for ocular hypotensive response (significance): all doses (0.5, 0.1 and 0.01%); for ocular hypotensive response (significance) / contralateral effect on IOP (fellow eye): topical, Dutch Belted rabbits; for contralateral effect on IOP (fellow eye): all doses tested (0.5, 0.1 and 0.01%)
Protocol: Intraocular Pressure (IOP) Measurements in Rabbits
Normotensive Dutch Belted rabbits (2.3 kg) of either sex were maintained on a 12-hour light/dark cycle during these experiments. Intraocular pressure (IOP) was measured using a calibrated pneumatonometer (Alcon Applanation Pneumatonograph), and results expressed in millimeters of mercury (mmHg). Before tonometry, one drop of 0.05% proparacaine was applied to the corneas to minimize any discomfort to the animal. Two base-line (control) readings were taken at (−0.5 and 0 hr.) after which Compounds I, Ia or II were administered topically (unilaterally applied into the conjunctival sac) in a 25 μl volume with the contralateral (fellow) eye receiving an equal volume of vehicle. A masked design was utilized, where the person involved in drug administration and measurement of IOP had no knowledge of the solutions' contents. Subsequently, IOP measurements were taken at 0.5, 1, 2, 3, 4, 5 and 6 hr after topical applications of drug. At the end of each day's measurements, stability of the tonometer was determined using the calibrator/verifier.

[2] = target: T1, high-conductance calcium-activated potassium (Maxi-K) channels (Homo sapiens, UniProt Q12791); experiment: Patch clamp recordings of Maxi-K channel currents in excised inside-out membrane patches; assay type: cell-based; details: 1 nM concentration applied to internal side of excised inside-out patch; held at -80 mV, steps to +50 mV
T1 construct: expressed in transfected cells; host or cells: CHO cells (α alone) or HEK293 cells (α and β1)
From the text: Electrophysiological Assays of Compound Effects on High-conductance Calcium-activated Potassium Channels
Patch clamp recordings of currents flowing through high-conductance calcium-activated potassium (Maxi-K) channels were made from membrane patches excised from CHO cells constitutively expressing the α-subunit of the Maxi-K channel or HEK293 cells constitutively expressing both α- and β1-subunits using conventional techniques (Hamill et al., 1981, Pflügers Archiv. 391, 85-100) at room temperature. Glass capillary tubing (Garner #7052) was pulled in two stages to yield micropipettes with tip diameters of approximately 1-2 microns. Pipettes were typically filled with solutions containing (mM): 150 KCl, 10 Hepes (4-(2-hydroxyethyl)-1-piperazine […]), 1 Mg, 0.01 Ca, and adjusted to pH 7.20 with 3.7 mM KOH. After forming a high resistance (>10^9 ohms) seal between the plasma membrane and the pipette, the pipette was withdrawn from the cell, forming an excised inside-out membrane patch. […]
The effects of the compounds of the present invention on Maxi-K channels were examined in excised inside-out membrane patches. […] The fraction of channels blocked in each experiment was calculated from the reduction in peak current caused by application of the specified compound to the internal side of the membrane patch. […]

[3] = target: T2, Maxi-K channel (alpha and beta1 subunits) (Homo sapiens, UniProt Q12791); experiment: FRET (VIPR) membrane potential assay in HEK-293 cells transfected with alpha and beta1 subunits of the maxi-K channel; assay type: cell-based
T2 construct: expressed in transfected cells
Protocol: The identification of inhibitors of the Maxi-K channel is based on the ability of expressed Maxi-K channels to set cellular resting potential after transfection of both alpha and beta1 subunits of the channel in HEK-293 cells and after being incubated with potassium channel blockers that selectively eliminate the endogenous potassium conductances of HEK-293 cells. In the absence of Maxi-K channel inhibitors, the transfected HEK-293 cells display a hyperpolarized membrane potential, negative inside, close to EK (−80 mV) which is a consequence of the activity of Maxi-K channels. Blockade of the Maxi-K channel by incubation with Maxi-K channel blockers will cause cell depolarization. Changes in membrane potential can be determined with voltage-sensitive fluorescence resonance energy transfer (FRET) dye pairs that use two components, a donor coumarin (CC2DMPE) and an acceptor oxanol (DiSBAC2(3)).
Oxanol is a lipophilic anion and distributes across the membrane according to membrane potential. Under normal conditions, when the inside of the cell is negative with respect to the outside, oxanol is accumulated at the outer leaflet of the membrane and excitation of coumarin will cause FRET to occur. Conditions that lead to membrane depolarization will cause the oxanol to redistribute to the inside of the cell, and, as a consequence, a decrease in FRET. […]

[4] = 0.01% unilateral topical application
[5] = 0.1% unilateral topical application
[6] = 0.5% unilateral topical application

T2 sequence (Q12791 whole entry): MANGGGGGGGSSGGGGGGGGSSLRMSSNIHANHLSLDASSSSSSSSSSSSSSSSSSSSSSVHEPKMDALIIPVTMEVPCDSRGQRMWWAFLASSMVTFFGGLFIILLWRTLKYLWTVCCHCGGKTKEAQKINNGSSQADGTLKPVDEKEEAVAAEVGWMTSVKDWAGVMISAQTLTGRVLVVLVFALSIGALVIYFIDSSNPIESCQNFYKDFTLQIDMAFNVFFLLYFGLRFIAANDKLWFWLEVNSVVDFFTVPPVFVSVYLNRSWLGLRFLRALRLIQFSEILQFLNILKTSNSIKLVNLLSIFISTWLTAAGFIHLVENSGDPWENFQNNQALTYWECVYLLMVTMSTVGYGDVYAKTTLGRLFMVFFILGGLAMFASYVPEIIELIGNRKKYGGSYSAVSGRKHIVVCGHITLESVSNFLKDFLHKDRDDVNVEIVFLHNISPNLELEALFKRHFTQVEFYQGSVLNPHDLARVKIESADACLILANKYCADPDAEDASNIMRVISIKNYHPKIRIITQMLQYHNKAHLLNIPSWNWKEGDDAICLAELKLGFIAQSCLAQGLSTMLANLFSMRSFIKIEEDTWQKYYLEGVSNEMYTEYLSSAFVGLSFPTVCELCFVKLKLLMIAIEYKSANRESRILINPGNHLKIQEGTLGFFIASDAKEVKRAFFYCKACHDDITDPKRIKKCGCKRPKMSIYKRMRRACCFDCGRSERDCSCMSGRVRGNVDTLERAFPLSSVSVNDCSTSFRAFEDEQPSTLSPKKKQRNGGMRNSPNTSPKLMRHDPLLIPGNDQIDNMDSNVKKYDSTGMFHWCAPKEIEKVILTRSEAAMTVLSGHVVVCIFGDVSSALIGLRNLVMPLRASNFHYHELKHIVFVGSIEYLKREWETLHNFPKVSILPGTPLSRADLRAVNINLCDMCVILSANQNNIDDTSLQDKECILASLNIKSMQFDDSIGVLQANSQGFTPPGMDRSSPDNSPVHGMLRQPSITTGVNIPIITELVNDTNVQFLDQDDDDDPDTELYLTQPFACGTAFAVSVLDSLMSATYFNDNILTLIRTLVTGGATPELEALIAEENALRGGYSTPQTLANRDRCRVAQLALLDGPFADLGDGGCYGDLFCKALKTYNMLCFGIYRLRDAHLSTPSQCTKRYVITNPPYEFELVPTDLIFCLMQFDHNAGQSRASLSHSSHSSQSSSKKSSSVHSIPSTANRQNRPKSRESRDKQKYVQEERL
T2 sequence (Q16558 whole entry partner): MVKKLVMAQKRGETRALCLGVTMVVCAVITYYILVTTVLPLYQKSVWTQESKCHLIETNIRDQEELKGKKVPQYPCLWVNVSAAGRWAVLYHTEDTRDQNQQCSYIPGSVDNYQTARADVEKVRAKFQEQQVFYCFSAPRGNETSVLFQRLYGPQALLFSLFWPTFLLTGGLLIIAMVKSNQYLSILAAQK
T1 sequence (Q12791 whole entry): as the sequence (Q12791 whole entry) above

Row | Compound | reduction of IOP [1, 4] | reduction of IOP [1, 5] | reduction of IOP [1, 6] | ocular hypotensive response (significance) [1] | contralateral effect on IOP (fellow eye) [1] | decrease in Maxi-K channel currents [2] | IC50 [3]
1 | CC(C)C[C@@H](C(=O)O[C@H]1C[C@H]2Cc3c([nH]c4ccccc34)[C@]2(C)[C@@]2(C)CC[C@@]34O[C@@H](C(=O)C=C3[C@]12O)C(C)(C)O4)N(C)C [Compound Ia] | 3 mmHg | 3.3 mmHg | 3.7 mmHg | significant | significant contralateral effect | 88% | ≤ 100 nM
2 | CC(C)[C@@H](C(=O)O[C@H]1C[C@H]2Cc3c([nH]c4ccccc34)[C@]2(C)[C@@]2(C)CC[C@@]34O[C@@H](C(=O)C=C3[C@]12O)C(C)(C)O4)N(C)C [Ib] | 3 mmHg | 3.3 mmHg | 3.7 mmHg | significant | significant contralateral effect |  | ≤ 100 nM
